The values below come from US20260317324A1, “BIFUNCTIONAL COMPOUNDS FOR DEGRADING BRAF VIA UBIQUITIN PROTEOSOME PATHWAY” (Nurix Therapeutics, Inc., priority 2023, published 2026).

This assay has as its target T1, BRAF V600E (Homo sapiens, UniProt P15056, V600E).
T1 construct: endogenous C-terminal HiBiT fusion tag on BRAF V600E allele; endogenous in cells; host or cells: A375 clone 1F10 (CRISPR-Cas9 knock-in of the HiBiT tag; parental A375 from ATCC)
As to the kind of experiment: BRAF HiBiT degradation assay, C-terminal HiBiT-tagged BRAF V600E A375 cells (clone 1F10), Nano-Glo HiBiT Lytic assay. It is filed as cell-based. To be noted: for Dmax: A-375. In outline: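 Using CRISPR-engineered A375 cells that carry a C-terminal HiBiT tag on endogenous BRAF V600E, remaining protein was quantified by lytic luminescence relative to DMSO-treated cells, with wildtype A375 as the background control. DC50 denotes the concentration giving 50% degradation.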
On the technique in general: HiBiT is a short tag that completes a luciferase, so light tracks the accessible tagged protein.

The mark [1] stands for this setting: A375 (BRAF V600E), DC50 at 50%: fitted conc. at Y=50.
Setting [2] is: A375 (BRAF V600E), percentage protein degraded at maximal compound effect relative to DMSO.

T1 sequence (P15056 whole entry V600E, the tested form may be a part): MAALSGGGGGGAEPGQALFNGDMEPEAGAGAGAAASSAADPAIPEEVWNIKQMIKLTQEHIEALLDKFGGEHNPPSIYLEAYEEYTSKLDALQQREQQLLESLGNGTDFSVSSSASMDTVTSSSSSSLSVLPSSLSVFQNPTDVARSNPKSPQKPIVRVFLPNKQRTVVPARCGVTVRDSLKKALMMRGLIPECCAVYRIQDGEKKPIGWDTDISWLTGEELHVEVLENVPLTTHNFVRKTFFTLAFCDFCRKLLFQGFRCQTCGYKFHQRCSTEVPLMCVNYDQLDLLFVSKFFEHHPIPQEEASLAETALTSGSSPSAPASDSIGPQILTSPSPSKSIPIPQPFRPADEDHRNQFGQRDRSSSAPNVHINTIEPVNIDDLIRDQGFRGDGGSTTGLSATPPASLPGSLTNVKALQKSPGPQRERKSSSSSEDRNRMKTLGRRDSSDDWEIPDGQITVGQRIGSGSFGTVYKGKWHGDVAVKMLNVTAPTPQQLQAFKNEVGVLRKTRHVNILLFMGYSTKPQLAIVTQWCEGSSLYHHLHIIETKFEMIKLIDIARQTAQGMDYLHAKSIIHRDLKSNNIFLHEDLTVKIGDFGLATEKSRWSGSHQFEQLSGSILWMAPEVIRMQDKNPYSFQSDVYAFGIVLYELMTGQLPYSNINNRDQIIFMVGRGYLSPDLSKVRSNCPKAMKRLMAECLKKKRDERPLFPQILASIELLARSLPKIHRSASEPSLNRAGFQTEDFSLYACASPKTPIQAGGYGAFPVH

As for `CCCS(=O)(=O)Nc1cccc(-c2nc(C(C)(C)C)sc2-c2ccnc(Nc3ccc(C4CCN(C(=O)CC5CCN(C6CCN(c7ccc8c(c7)C(=O)N(C7CCC(=O)NC7=O)C8=O)CC6)CC5)CC4)cc3)n2)c1F` (racemic) [Compound 158, Rac-N-[3-(2-tert-butyl-5-{2-[(4-{1-[2-(1′-{2-[(3R)-2,6-dioxopiperidin-3-yl]-1,3-dioxo-2,3-dihydro-1H-isoindol-5-yl}-[1,4′-bipiperidin]-4-yl)acetyl]piperidin-4-yl}phenyl)amino]pyrimidin-4-yl}-1,3-thiazol-4-yl)-2-fluorophenyl]propane-1-sulfonamide], the DC50 under setting [1] lay in the range of 50 to 500 nM. The Dmax under setting [2] lay in the range of 30 to 70%.
In the same order, the values of `CCCS(=O)(=O)Nc1cccc(-c2nc(C(C)(C)C)sc2-c2ccnc(Nc3ccc(N4CCN(C(=O)[C@H]5CC[C@H](Oc6ccc(C7CCC(=O)NC7=O)cn6)CC5)CC4)c(F)c3)n2)c1F` (mixture of isomers) [Compound 50, N-[3-(2-tert-butyl-5-{2-[(3-fluoro-4-{4-[(1r,4r)-4-({5-[(3RS)-2,6-dioxopiperidin-3-yl]pyridin-2-yl}oxy)cyclohexanecarbonyl]piperazin-1-yl}phenyl)amino]pyrimidin-4-yl}-1,3-thiazol-4-yl)-2-fluorophenyl]propane-1-sulfonamide] are 10 to 50 nM and > 70%.
The matching figures for `CCN(C)S(=O)(=O)Nc1cccc(-c2nc(C)sc2-c2ccnc(Nc3ccc(N4CCN(C(=O)CC5CCN(c6ccc(C7CCC(=O)NC7=O)cn6)CC5)CC4)cn3)n2)c1F` (racemic) [Compound 39, Rac-(3R)-3-{6-[4-(2-{4-[6-({4-[4-(3-{[ethyl(methyl)sulfamoyl]amino}-2-fluorophenyl)-2-methyl-1,3-thiazol-5-yl]pyrimidin-2-yl}amino)pyridin-3-yl]piperazin-1-yl}-2-oxoethyl)piperidin-1-yl]pyridin-3-yl}piperidine-2,6-dione]: < 10 nM and > 70%.
The matching figures for `CCCS(=O)(=O)Nc1cccc(-c2nc(C(C)(C)C)sc2-c2ccnc(Nc3ccc(C4CCN(C(=O)C5CCN(c6ccc(C7CCC(=O)NC7=O)cc6)CC5)CC4)cc3)n2)c1F` (racemic) [Compound 37, Rac-N-(3-{2-tert-butyl-5-[2-({4-[1-(1-{4-[(3R)-2,6-dioxopiperidin-3-yl]phenyl}piperidine-4-carbonyl)piperidin-4-yl]phenyl}amino)pyrimidin-4-yl]-1,3-thiazol-4-yl}-2-fluorophenyl)propane-1-sulfonamide]: 10 to 50 nM and 30 to 70%.
For the molecule `CCCS(=O)(=O)Nc1cccc(-c2nc(C(C)(C)C)sc2-c2ccnc(Nc3ccc4c(c3)CCN(C(=O)[C@@H]3CCN(c5ccc(C6CCC(=O)NC6=O)cn5)C3)C4)n2)c1F` (mixture of isomers) [Compound 121, N-(3-{2-tert-butyl-5-[2-({2-[(3R)-1-{5-[(3RS)-2,6-dioxopiperidin-3-yl]pyridin-2-yl}pyrrolidine-3-carbonyl]-1,2,3,4-tetrahydroisoquinolin-6-yl}amino)pyrimidin-4-yl]-1,3-thiazol-4-yl}-2-fluorophenyl)propane-1-sulfonamide], the DC50 under setting [1] lay within 50 to 500 nM. The molecule further showed a Dmax under setting [2] of 30 to 70%.
In the same order, the values of `CCCS(=O)(=O)Nc1cccc(-c2nc(C(C)(C)C)sc2-c2ccnc(NC3CC4(C3)CN(CC3CCN(C(=O)C5CCN(c6ccc(C7CCC(=O)NC7=O)cc6)CC5)CC3)C4)n2)c1F` (racemic) [Compound 140, Rac-N-[3-(2-tert-butyl-5-{2-[(2-{[1-(1-{4-[(3R)-2,6-dioxopiperidin-3-yl]phenyl}piperidine-4-carbonyl)piperidin-4-yl]methyl}-2-azaspiro[3.3]heptan-6-yl)amino]pyrimidin-4-yl}-1,3-thiazol-4-yl)-2-fluorophenyl]propane-1-sulfonamide] are 10 to 50 nM and > 70%.
In the same order, the values of `CCCS(=O)(=O)Nc1cccc(-c2nc(C(C)(C)C)sc2-c2ccnc(Nc3ccc(C4CCN(C(=O)CN5CCC6(CC5)CN(c5ccc7c(c5)C(=O)N(C5CCC(=O)NC5=O)C7=O)C6)CC4)cc3)n2)c1F` (racemic) [Compound 153, Rac-N-[3-(2-tert-butyl-5-{2-[(4-{1-[2-(2-{2-[(3R)-2,6-dioxopiperidin-3-yl]-1,3-dioxo-2,3-dihydro-1H-isoindol-5-yl}-2,7-diazaspiro[3.5]nonan-7-yl)acetyl]piperidin-4-yl}phenyl)amino]pyrimidin-4-yl}-1,3-thiazol-4-yl)-2-fluorophenyl]propane-1-sulfonamide] are 50 to 500 nM and 30 to 70%.
`CCCS(=O)(=O)Nc1cccc(-c2nc(C(C)(C)C)sc2-c2ccnc(Nc3ccc(C4CCN(C(=O)C[C@@H]5CCN(c6ccc(C7CCC(=O)NC7=O)cc6)C5)CC4)cc3)n2)c1F` (mixture of isomers) [Compound 166, N-{3-[2-tert-butyl-5-(2-{[4-(1-{2-[(3S)-1-{4-[(3RS)-2,6-dioxopiperidin-3-yl]phenyl}pyrrolidin-3-yl]acetyl}piperidin-4-yl)phenyl]amino}pyrimidin-4-yl)-1,3-thiazol-4-yl]-2-fluorophenyl}propane-1-sulfonamide] came in with a DC50 under setting [1] of 50 to 500 nM. This molecule also gave a Dmax under setting [2] of 30 to 70%.
In the same order, the values of `CCCS(=O)(=O)Nc1cccc(-c2nc(C(C)(C)C)sc2-c2ccnc(Nc3cccc(C4CCN(C(=O)CN5CCC(c6ccc(NC7CCC(=O)NC7=O)cc6)CC5)CC4)c3)n2)c1F` (racemic) [Compound 103, Rac-N-{3-[2-tert-butyl-5-(2-{[3-(1-{2-[4-(4-{[(3R)-2,6-dioxopiperidin-3-yl]amino}phenyl)piperidin-1-yl]acetyl}piperidin-4-yl)phenyl]amino}pyrimidin-4-yl)-1,3-thiazol-4-yl]-2-fluorophenyl}propane-1-sulfonamide] are 10 to 50 nM and 30 to 70%.
In the case of `CCCS(=O)(=O)Nc1cccc(-c2nc(C(C)(C)C)sc2-c2ccnc(Nc3cnn(CC4CCN(CC5CCN(c6ccc(C(=O)N[C@@H]7CCC(=O)NC7=O)nc6)CC5)CC4)c3)n2)c1F` [Compound 66, 5-(4-{[4-({4-[(4-{2-tert-butyl-4-[2-fluoro-3-(propane-1-sulfonamido)phenyl]-1,3-thiazol-5-yl}pyrimidin-2-yl)amino]-1H-pyrazol-1-yl}methyl)piperidin-1-yl]methyl}piperidin-1-yl)-N-[(3R)-2,6-dioxopiperidin-3-yl]pyridine-2-carboxamide], the DC50 under setting [1] was < 10 nM. Besides, the Dmax under setting [2] is > 70%.
The matching figures for `CCCS(=O)(=O)Nc1cccc(-c2nc(C3CCC4(CC3)CN(C(=O)C3CN(C5CCN(c6ccc7c(c6)C(=O)N(C6CCC(=O)NC6=O)C7=O)CC5)C3)C4)sc2-c2ccnc(N)n2)c1F` (racemic) [Compound 241, Rac-N-{3-[5-(2-aminopyrimidin-4-yl)-2-{2-[1-(1-{2-[(3R)-2,6-dioxopiperidin-3-yl]-1,3-dioxo-2,3-dihydro-1H-isoindol-5-yl}piperidin-4-yl)azetidine-3-carbonyl]-2-azaspiro[3.5]nonan-7-yl}-1,3-thiazol-4-yl]-2-fluorophenyl}propane-1-sulfonamide]: < 10 nM and > 70%.
In the same order, the values of `CCCS(=O)(=O)Nc1cccc(-c2cn(-c3ccc(C(=O)N4CCN(CC5CCN(c6ccc([C@H]7CCC(=O)NC7=O)cc6)CC5)CC4)cc3)nc2-c2ccncc2)c1F` [Compound 11, N-{3-[1-(4-{4-[(1-{4-[(3R)-2,6-dioxopiperidin-3-yl]phenyl}piperidin-4-yl)methyl]piperazine-1-carbonyl}phenyl)-3-(pyridin-4-yl)-1H-pyrazol-4-yl]-2-fluorophenyl}propane-1-sulfonamide] are 50 to 500 nM and 30 to 70%.
The matching figures for `CCCS(=O)(=O)Nc1cccc(-c2nc(C)sc2-c2ccnc(Nc3ccc(N4CCN(CC5CCN(c6ccc([C@H]7CCC(=O)NC7=O)cc6)CC5)CC4)cn3)n2)c1F` [Compound 60, N-[3-(5-{2-[(5-{4-[(1-{4-[(3R)-2,6-dioxopiperidin-3-yl]phenyl}piperidin-4-yl)methyl]piperazin-1-yl}pyridin-2-yl)amino]pyrimidin-4-yl}-2-methyl-1,3-thiazol-4-yl)-2-fluorophenyl]propane-1-sulfonamide]: 10 to 50 nM and > 70%.
Molecule `CCCS(=O)(=O)Nc1cccc(-c2nc(C(C)(C)C)sc2-c2ccnc(Nc3cccc(OC4CCN(C(=O)[C@H]5CC[C@H](Oc6ccc(C7CCC(=O)NC7=O)cc6)CC5)CC4)c3)n2)c1F` (mixture of isomers) [Compound 98, N-{3-[2-tert-butyl-5-(2-{[3-({1-[(1r,4r)-4-{4-[(3RS)-2,6-dioxopiperidin-3-yl]phenoxy}cyclohexanecarbonyl]piperidin-4-yl}oxy)phenyl]amino}pyrimidin-4-yl)-1,3-thiazol-4-yl]-2-fluorophenyl}propane-1-sulfonamide] yielded a DC50 under setting [1] of 10 to 50 nM. Under setting [2], this molecule showed a Dmax of 30 to 70%.
Consider `O=C1CCC(c2ccc(N3CCC(CN4CCN(c5cnc(-n6cc(-c7cc(F)cc(NS(=O)(=O)N8CCCC8)c7F)c(-c7ccncc7)n6)nc5)CC4)CC3)nc2)C(=O)N1` (racemic) [Compound 343, Rac-N-{3-[1-(5-{4-[(1-{5-[(3R)-2,6-dioxopiperidin-3-yl]pyridin-2-yl}piperidin-4-yl)methyl]piperazin-1-yl}pyrimidin-2-yl)-3-(pyridin-4-yl)-1H-pyrazol-4-yl]-2,5-difluorophenyl}pyrrolidine-1-sulfonamide], for which the DC50 (A375 (BRAF V600E, Class 1), DC50 at 50% degradation) is < 10 nM. Also, where the note is “A375 (BRAF V600E, Class 1), observed Dmax, % protein degraded relative to DMSO control”, the Dmax is > 70%.

Broadly, the DC50 is the midpoint of the concentration-degradation curve. High values mean a less potent degrader, low ones a more potent degrader. By Dmax is commonly meant the largest share of the target that was removed. Read a low Dmax as shallow degradation.
